Measured values published in US20070248996A1, “Modulators of beta-amyloid peptide aggregation comprising D-amino acids” (Paraecis Pharmaceuticals, Inc., priority 1995, published 2007).
Read-outs that look alike come from different tables or passages of the source. Square brackets hold non-standard residues; d marks the D form. Peptide text beside a SMILES is read from it. * marks the point of attachment. Acetyl(4-pyridyl) = O=C(Cc1ccncc1)*; d3Pal = N[C@H](Cc1cccnc1)C(=O)O; Isonicotinoyl = O=C(c1ccncc1)*; X1 = O=C(c1cc2cc(O)ccc2cc1O)*

Molecular target: Aβ1-40 (Homo sapiens, UniProt P05067)
Sequence (P05067 672-711): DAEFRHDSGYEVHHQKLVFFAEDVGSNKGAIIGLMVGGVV
Assay type: biochemical
Design: ΔLag: unit not given here
Conditions: for ΔLag 2 μM: 2 μM test compound; for ΔLag 3 μM: 3 μM test compound; for ΔLag 4 μM: 4 μM test compound; for ΔLag: Table XI; for ΔLag 5.0 μM: 5.0 μM test compound
Source text: The nucleation assay is employed to determine the ability of test compounds to alter (e.g. inhibit) the early events in formation of β-AP fibers from monomeric β-AP. Characteristic of a nucleated polymerization mechanism, a lag time is observed prior to nucleation, after which the peptide rapidly forms fibers as reflected in a linear rise in turbidity. The time delay before polymerization of β-AP monomer can be quantified as well as the extent of formation of insoluble fiber by light scattering (turbidity). Polymerization reaches equilibrium when the maximum turbidity reaches a plateau The turbidity of a solution of natural β-AP in the absence or presence of various concentrations of a β-amyloid modulator compound is determined by measuring the apparent absorbance of the solution at 405 nm (A405 nm) over time. The threshold of sensitivity for the measurement of turbidity is in the range of 15-20 μM β-AP. […] This assay can be performed using stirring or shaking to accelerate polymerization, thereby increasing the speed of the assay. Moreover the assay can be adapted to a 96-well plate format to screen multiple compounds.
HFIP-solubilized peptide is sonicated in a waterbath sonicator for 5 min at highest setting, then evaporated to dryness under a stream of argon. The peptide film is resuspended in anhydrous dimethylsulfoxide (DMSO) at a concentration of 6.9 mg/ml (25× concentration), sonicated for 5 min as before, then filtered through a 0.2 micron nylon syringe filter (VWR cat. No.28196-050). Test compounds are dissolved in DMSO at a 100× concentration. […] Ten microliters of the mixture is then added to the bottom of a well of a Corning Costar ultra low binding 96-well plate (Coming Costar, Cambridge Mass.; cat. No. 2500). Ninety microliters of water is added to the well, the plate is shaken on a rotary shaken at a constant speed at room temperature for 30 seconds, an additional 100 μl of 2× PTL buffer (20 mM NaH2PO4, 300 mM NaCl, pH 7.4) is added to the well, the plate is reshaken for 30 seconds and a baseline (t=0) turbidity reading is taken by measuring the apparent absorbance at 405 nm using a Bio-Rad Model 450 Microplate Reader. The plate is then returned to the shaker and shaken continuously for 5 hours. Turbidity readings are taken at 15 minute intervals.
β-amyloid aggregation in the absence of any modulators results in enhanced turbidity of the natural β-AP solution (i.e., an increase in the apparent absorbance at 405 nm over time). […]

[1] = Table II, second series, different stock of Aβ1-40
[2] = Table II, second series, different stock of Aβ1-40, 5 μM test compound
[3] = Table IV, hydrophobic modifying groups, 5 μM test compound
[4] = Table V, hydroxylated and oxygenated modifying groups, 5 μM test compound
[5] = Table III, modifying groups derived from bile acids, 5 μM test compound

Molecule: 3-(4-Hydroxyphenyl)propionyl-d(FFVL)-nh2 [PPI-616]
- ΔLag 5 μM (Table IX, 5 μM test compound): 1.5

Molecule: (±)-Mandelyl-d(AFFVL)-nh2 [PPI-584]
- ΔLag 5 μM (Table IX, 5 μM test compound): 4.8

Molecule: 5-Hydantoinacetyl-d(LVFFA)-nh2 [PPI-539]
- ΔLag 5 μM (Table IX, 5 μM test compound): 2.4

Molecule: h-d(LVFF)-nh2 [PPI-471]
- ΔLag 2 μM [1]: 2.6
- ΔLag 3 μM [1]: 2.6
- ΔLag 4 μM [1]: 2.6
- ΔLag 5 μM [2]: 2.4

Molecule: Phenylacetyl-d(LVFF)-nh2 [PPI-480]
- ΔLag 5 μM [3]: 1.0

Molecule: Pepstatin A [PPI-516, reference compound]
- ΔLag 5 μM [4]: 1.6

Molecule: cholyl-D-Leu-D-Val-D-Phe-D-Phe-D-Ala-NH2 [PPI-457]
- ΔLag 5 μM (Table I, 5 μM Aβ1-40, 5 μM test compound, ratio of lag time to control): >10
- ΔLag 5 μM (Table IX, 5 μM test compound): >6

Molecule: h-d(VF)-PEA [PPI-497]
- ΔLag 5 μM [3]: 1.0

Molecule: 3-Formylbenzoyl-d(LVFFA)-nh2 [PPI-546]
- ΔLag 5 μM (Table IX, 5 μM test compound): 1.9

Molecule: Dihphenylacetyl-d(LVFF)-nh2 [PPI-484]
- ΔLag 5 μM [3]: 1.3

Molecule: Glycolyl-d(AFFLL)-nh2 [PPI-592]
- ΔLag 5 μM (Table IX, 5 μM test compound): 1.8

Molecule: Ursodeoxycholyl-LVFFA-oh [PPI-522]
- ΔLag 5 μM [5]: >2.3
- ΔLag 5 μM (Table IX, 5 μM test compound): 1.2

Molecule: CC(C)C[C@@H](NC(=O)[C@H](NC(=O)[C@@H](Cc1ccccc1)NC(=O)[C@@H](Cc1ccccc1)NC(=O)[C@@H](C)NC(=O)Cc1ccncc1)C(C)C)C(N)=O [PPI-741, 4-Pyridylacetyl-d(AFFVL)-nh2] ({Acetyl(4-pyridyl)}-[dA][dF][dF][dV][dL]-NH2)
- ΔLag (2.5 μM test compound): 2.0

Molecule: 4-Hydroxybenzoyl-d(AFFVL)-nh2 [PPI-629]
- ΔLag 5 μM (Table IX, 5 μM test compound): 2.9

Molecule: DL-3-(4-Hydroxyphenyl)Lactyl-d(LVFFA)-nh2 [PPI-599]
- ΔLag 5 μM (Table IX, 5 μM test compound): 1.4

Molecule: D-3-Phenyllactyl-d(FFVL)-nh2 [PPI-612]
- ΔLag 5 μM (Table IX, 5 μM test compound): 2.1

Molecule: CC(C)C[C@@H](NC(=O)[C@H](NC(=O)[C@@H](Cc1ccccc1)NC(=O)[C@@H](Cc1ccccc1)NC(=O)[C@@H](C)NC(=O)c1ccncc1)C(C)C)C(N)=O [PPI-732, Isonicotinoyl-d(AFFVL)-nh2] (Isonicotinoyl-[dA][dF][dF][dV][dL]-NH2)
- ΔLag (5 μM test compound): <2

Molecule: 1-Adamantanecarbonyl-d(LVFF)-nh2 [PPI-492]
- ΔLag 5 μM [3]: 1.1

Molecule: Glycolyl-d(LVFFA)-nh2 [PPI-535]
- ΔLag 5 μM (Table IX, 5 μM test compound): 1.3
- ΔLag 5 μM [4]: 1.4

Molecule: 3-(2-Hydroxyphenyl)propionyl-d(FFVL)-nh2 [PPI-615]
- ΔLag 5 μM (Table IX, 5 μM test compound): 2.0

Molecule: Acetyl-d(VF)-PEA [PPI-495]
- ΔLag 5 μM [3]: 1.0

Molecule: CC(C)C[C@@H](NC(=O)[C@H](NC(=O)[C@@H](Cc1ccccc1)NC(=O)[C@@H](Cc1ccccc1)NC(=O)[C@@H](Cc1cccnc1)NC(=O)c1cc2cc(O)ccc2cc1O)C(C)C)C(N)=O [PPI-664, 3,7-Dihidroxy-2-naphthol-d(Pal-FFVL)-nh2] (X1-[d3Pal][dF][dF][dV][dL]-NH2)
- ΔLag (0.5 μM test compound): 0
- ΔLag (5 μM test compound): 2

Molecule: Hydrocinnamoyl-d(FFFVL)-nh2 [PPI-636]
- ΔLag 5 μM (Table IX, 5 μM test compound): 1.7

Molecule: Hyodeoxycholyl-LVFFA-oh [PPI-520]
- ΔLag 5 μM [5]: >2.3
- ΔLag 5 μM (Table IX, 5 μM test compound): 1.5

Molecule: 3,4-Dihydroxycinnamoyl-d(LVFF)-nh2 [PPI-491]
- ΔLag 5 μM [4]: 3.0

Molecule: 2-Hydroxyphenylacetyl-d(LVFF)-nh2 [PPI-481]
- ΔLag 5 μM [4]: 2.0

Molecule: h-d(LVYFA)-nh2 [PPI-503]
- ΔLag 5.0 μM (Table VI): 1.2

Molecule: h-d(AAAAA)-nh2 [PPI-473]
- ΔLag 3 μM [1]: 1.0
- ΔLag 4 μM [1]: 1.0
- ΔLag 5 μM [2]: 1.0

Molecule: 3,4-Dihydroxycinnamoyl-d(LVFFA)-nh2 [PPI-543]
- ΔLag 5 μM (Table IX, 5 μM test compound): 1.6

Molecule: 3-Hydroxyphenylacetyl-d(LVFF)-nh2 [PPI-483]
- ΔLag 5 μM (Table IX, 5 μM test compound): 2.9
- ΔLag 5 μM [4]: 2.2

Molecule: Triphenylacetyl-d(LVFF)-nh2 [PPI-485]
- ΔLag 5 μM [3]: 2.7

Molecule: 2-Hydroxycinnamoyl-d(LVFFA)-nh2 [PPI-536]
- ΔLag 5 μM (Table IX, 5 μM test compound): 1.4

Molecule: h-d(LFFVL)-nh2 [PPI-578]
- ΔLag 0.5 μM (Table VI, 0.5 μM test compound): 2.5
- ΔLag 5.0 μM (Table VI): >7.5
- ΔLag […] (Table VI, […] test compound): 4.8
- ΔLag 5 μM (Table X, 5 μM test compound): 3.2

Molecule: h-d(VF)-PEA [PPI-493]
- ΔLag 2 μM [1]: 1.0
- ΔLag 3 μM [1]: 1.0
- ΔLag 4 μM [1]: 1.0
- ΔLag 5 μM [2]: 1.9
